Data: the supplement of paper PMC11208160

experiment: recombinant UMI read abundance after kanamycin selection (control-corrected) (log10(CPM+1)); higher = more efficient recombination; extreme values may be limits of the assay; sequences stand for … in AGTGCAGAGAAAATCGGCCAGTTTTCTCTGCCTGCAGTCCGCATGCCGTGGGACCCCTTGGGTTCTAACCTGTTGCCTAGATTTATGCAGCGGACTGCCTTTCTCCCAAAGTGATAAACCGG…AGGTTGGTTTCACT; site = the 11-nt donor
How it was run: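 Under IPTG (0.07 mM) plus kanamycin, or without selection, Escherichia coli carrying a UMI-tagged donor and donor-binding-loop pair library and a target plasmid for the IS621 bridge recombinase were plated in two replicates. Recombinant UMIs were PCR-amplified across the donor–target junction and sequenced. Counts were converted to CPM, averaged over replicates, scaled by control-derived factors and reported as log10(CPM+1).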
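Further: IS621 bridge recombinase in Escherichia coli cells against a fixed T5 target plasmid.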

Row | Sequence | recombinant UMI read abundance (log10)
1 | GTAACTCCATGGACCGGTTTTCCCGGTAATCCGTATTTGTC (site GTAACTCCTGA) | 1.71
2 | GTAAGAACATGGACCGGTTTTCCCGGTAATCCGTATTTGGC (site GTAAGAACTGC) | 2.33
3 | GTAAGAACATGGACCGGTTTTCCCGGTAATCCGTATTTGGC (site GTCAGAACTGC) | 0
4 | GTAAGAACATGGACCGGTTTTCCCGGTAATCCGTATTTGGC (site GTGAGAACTGC) | 1.09
5 | GTAAGAACATGGACCGGTTTTCCCGGTAATCCGTATTTGGC (site GTTAGAACTGC) | 1.13
6 | GTAAGCCCATGGACCGGTTTTCCCGGTAATCCGTATTTGTC (site GTAAGCCCTGA) | 1.98
7 | GTAAGCGCATGGACCGGTTTTCCCGGTAATCCGTATTTGGC (site GTAAGCGCTGC) | 3.26
8 | GTAAGTACATGGACCGGTTTTCCCGGTAATCCGTATTTGGA (site GTAAGTACTTC) | 1.17
9 | GTAATAACATGGACCGGTTTTCCCGGTAATCCGTATTTGGC (site GTAATAACTGC) | 2.43
10 | GTAATACCATGGACCGGTTTTCCCGGTAATCCGTATTTGCA (site GTAATACCTTG) | 0
11 | GTAATCGCATGGACCGGTTTTCCCGGTAATCCGTATTTGCG (site GTAATCGCTCG) | 1.95
12 | GTAATCGCATGGACCGGTTTTCCCGGTAATCCGTATTTGCG (site GTACTCGCTCG) | 0.0396
13 | GTAATCGCATGGACCGGTTTTCCCGGTAATCCGTATTTGCG (site GTAGTCGCTCG) | 0.00978
14 | GTAATCGCATGGACCGGTTTTCCCGGTAATCCGTATTTGCG (site GTATTCGCTCG) | 0.00488
15 | GTAATGGCATGGACCGGTTTTCCCGGTAATCCGTATTTGAA (site GTAATGGCTTT) | 2.26
16 | GTAATTTCATGGACCGGTTTTCCCGGTAATCCGTATTTGCA (site GTAATTTCTTG) | 1.4
17 | GTACACGCATGGACCGGTTTTCCCGGTAATCCGTATTTGCT (site GTACACGCTAG) | 2.16
18 | GTACATTCATGGACCGGTTTTCCCGGTAATCCGTATTTGAT (site GTACATTCTAT) | 2.04
19 | GTACGCCCATGGACCGGTTTTCCCGGTAATCCGTATTTGAT (site GTACGCCCTAT) | 0.747
20 | GTACGCCCATGGACCGGTTTTCCCGGTAATCCGTATTTGCA (site GTACGCCCTTG) | 1.16
21 | GTACGCTCATGGACCGGTTTTCCCGGTAATCCGTATTTGAA (site GTACGCTCTTT) | 2.11
22 | GTACTAACATGGACCGGTTTTCCCGGTAATCCGTATTTGGC (site GTACTAACTGC) | 2.4
23 | GTACTACCATGGACCGGTTTTCCCGGTAATCCGTATTTGTG (site GTACTACCTCA) | 0.00602
24 | GTACTCGCATGGACCGGTTTTCCCGGTAATCCGTATTTGTC (site GTACTCGCTGA) | 2.42
25 | GTAGATACATGGACCGGTTTTCCCGGTAATCCGTATTTGCC (site GTAGATACTGG) | 0

Row | Sequence | recombinant UMI read abundance (log10)
26 | GTAGCGACATGGACCGGTTTTCCCGGTAATCCGTATTTGAG (site GTAGCGACTCT) | 1.28
27 | GTAGGAACATGGACCGGTTTTCCCGGTAATCCGTATTTGAC (site GTAGGAACTGT) | 2.59
28 | GTAGGAACATGGACCGGTTTTCCCGGTAATCCGTATTTGAC (site GTAGGCACTGT) | 1.3
29 | GTAGGAACATGGACCGGTTTTCCCGGTAATCCGTATTTGAC (site GTAGGGACTGT) | 2.24
30 | GTAGGAACATGGACCGGTTTTCCCGGTAATCCGTATTTGAC (site GTAGGTACTGT) | 1.56
31 | GTAGGCACATGGACCGGTTTTCCCGGTAATCCGTATTTGAC (site GTAGGAACTGT) | 1.1
32 | GTAGGCACATGGACCGGTTTTCCCGGTAATCCGTATTTGAC (site GTAGGCACTGT) | 2.05
33 | GTAGGCACATGGACCGGTTTTCCCGGTAATCCGTATTTGAC (site GTAGGGACTGT) | 0
34 | GTAGGCACATGGACCGGTTTTCCCGGTAATCCGTATTTGAC (site GTAGGTACTGT) | 0.00895
35 | GTAGGTACATGGACCGGTTTTCCCGGTAATCCGTATTTGAC (site ATAGGTACTGT) | 2.02
36 | GTAGGTACATGGACCGGTTTTCCCGGTAATCCGTATTTGAC (site CTAGGTACTGT) | 1.95
37 | GTAGGTACATGGACCGGTTTTCCCGGTAATCCGTATTTGAC (site GAAGGTACTGT) | 0
38 | GTAGGTACATGGACCGGTTTTCCCGGTAATCCGTATTTGAC (site GCAGGTACTGT) | 0.704
39 | GTAGGTACATGGACCGGTTTTCCCGGTAATCCGTATTTGAC (site GGAGGTACTGT) | 0
40 | GTAGGTACATGGACCGGTTTTCCCGGTAATCCGTATTTGAC (site GTAAGTACTGT) | 1.98
41 | GTAGGTACATGGACCGGTTTTCCCGGTAATCCGTATTTGAC (site GTACGTACTGT) | 0.584
42 | GTAGGTACATGGACCGGTTTTCCCGGTAATCCGTATTTGAC (site GTAGATACTGT) | 1.54
43 | GTAGGTACATGGACCGGTTTTCCCGGTAATCCGTATTTGAC (site GTAGCTACTGT) | 0.853
44 | GTAGGTACATGGACCGGTTTTCCCGGTAATCCGTATTTGAC (site GTAGGAACTGT) | 1.59
45 | GTAGGTACATGGACCGGTTTTCCCGGTAATCCGTATTTGAC (site GTAGGCACTGT) | 2.64
46 | GTAGGTACATGGACCGGTTTTCCCGGTAATCCGTATTTGAC (site GTAGGGACTGT) | 1.8
47 | GTAGGTACATGGACCGGTTTTCCCGGTAATCCGTATTTGAC (site GTAGGTACTAT) | 2.23
48 | GTAGGTACATGGACCGGTTTTCCCGGTAATCCGTATTTGAC (site GTAGGTACTCT) | 0.304
49 | GTAGGTACATGGACCGGTTTTCCCGGTAATCCGTATTTGAC (site GTAGGTACTGA) | 1.23
50 | GTAGGTACATGGACCGGTTTTCCCGGTAATCCGTATTTGAC (site GTAGGTACTGC) | 1.5

Row | Sequence | recombinant UMI read abundance (log10)
51 | GTAGGTACATGGACCGGTTTTCCCGGTAATCCGTATTTGAC (site GTAGGTACTGG) | 0.351
52 | GTAGGTACATGGACCGGTTTTCCCGGTAATCCGTATTTGAC (site GTAGGTACTGT) | 2.01
53 | GTAGGTACATGGACCGGTTTTCCCGGTAATCCGTATTTGAC (site GTAGGTACTTT) | 0
54 | GTAGGTACATGGACCGGTTTTCCCGGTAATCCGTATTTGAC (site GTAGGTCCTGT) | 0
55 | GTAGGTACATGGACCGGTTTTCCCGGTAATCCGTATTTGAC (site GTAGGTGCTGT) | 2.02
56 | GTAGGTACATGGACCGGTTTTCCCGGTAATCCGTATTTGAC (site GTAGGTTCTGT) | 1.76
57 | GTAGGTACATGGACCGGTTTTCCCGGTAATCCGTATTTGAC (site GTAGTTACTGT) | 1.2
58 | GTAGGTACATGGACCGGTTTTCCCGGTAATCCGTATTTGAC (site GTATGTACTGT) | 0.986
59 | GTAGGTACATGGACCGGTTTTCCCGGTAATCCGTATTTGAC (site GTCGGTACTGT) | 1.16
60 | GTAGGTACATGGACCGGTTTTCCCGGTAATCCGTATTTGAC (site GTGGGTACTGT) | 2.19
61 | GTAGGTACATGGACCGGTTTTCCCGGTAATCCGTATTTGAC (site GTTGGTACTGT) | 1.96
62 | GTAGGTACATGGACCGGTTTTCCCGGTAATCCGTATTTGAC (site TTAGGTACTGT) | 1.65
63 | GTAGGTACATGGACCGGTTTTCCCGGTAATCCGTATTTGAG (site GTAGGTACTAT) | 0.994
64 | GTAGGTACATGGACCGGTTTTCCCGGTAATCCGTATTTGAG (site GTAGGTACTCT) | 1.29
65 | GTAGGTACATGGACCGGTTTTCCCGGTAATCCGTATTTGAG (site GTAGGTACTGT) | 1.42
66 | GTAGGTACATGGACCGGTTTTCCCGGTAATCCGTATTTGAG (site GTAGGTACTTT) | 0.806
67 | GTAGGTACATGGACCGGTTTTCCCGGTAATCCGTATTTGAT (site GTAGGTACTAT) | 1.87
68 | GTAGGTACATGGACCGGTTTTCCCGGTAATCCGTATTTGAT (site GTAGGTACTCT) | 0.18
69 | GTAGGTACATGGACCGGTTTTCCCGGTAATCCGTATTTGAT (site GTAGGTACTGT) | 0.596
70 | GTAGGTACATGGACCGGTTTTCCCGGTAATCCGTATTTGAT (site GTAGGTACTTT) | 0.00769
71 | GTAGTACCATGGACCGGTTTTCCCGGTAATCCGTATTTGAC (site CTAGTATCTGT) | 0
72 | GTAGTACCATGGACCGGTTTTCCCGGTAATCCGTATTTGAC (site GTAGTACCTGT) | 0
73 | GTAGTCACATGGACCGGTTTTCCCGGTAATCCGTATTTGCG (site GTAGTCACTCG) | 2.1
74 | GTAGTCACATGGACCGGTTTTCCCGGTAATCCGTATTTGCG (site GTAGTCCCTCG) | 0.0197
75 | GTAGTCACATGGACCGGTTTTCCCGGTAATCCGTATTTGCG (site GTAGTCGCTCG) | 1.67
